Patent publication US4428806A, “Process for producing brominated 1,3-dioxolen-2-ones” (priority 1981, dated 1984)
Counter-ions that a name gives are not always drawn. Like-named read-outs stand apart in the source and are kept apart here. Values belong to the compound of their own block, whether it stands above or below them.

Assays:
[1] = Blood level in oral administration (ampicillin concentration in serum, bioassay); format: in vivo, mice (ddY-strain); details: mice; for Ratio of the concentration of ampicillin in the serum: 50 mg/kg as ampicillin, ratio to ampicillin trihydrate (C = 1.0)
Protocol: Each of the test compounds (as an aqueous solution having a concentration of 5 mg/ml as ampicillin) was orally administered in a dose of 50 mg/kg as ampicillin to four week old mice (ddY-strain, body weight about 20 g, five per group) which were caused to fast overnight. The blood was taken from the mice periodically, and the concentration of ampicillin in the serum was measured by a bioassay method. The blood Ampicillin level ratio was calculated from the following equation. [formula]

[2] = in vitro; format: in vitro ADME; details: pH 1.2
Protocol: (§1) 1. Test compounds: A and B above
Each of the test compounds was dissolved in an acidic medium (pH 1.2) consisting of 2.0 g of sodium chloride, 24 ml of 10% hydrochloric acid, 3.2 g of pepsin and 1000 ml of water. The solution was shaken at 37° C., and sampled periodically. The sample was subjected to high-performance liquid chromatography using a reversed phase partition column, and the degree of hydrolysis of each of the test compounds was determined from a decrease in its peak height.

[3] = in vitro; format: in vitro ADME; details: pH 7.5
Protocol: as §1
Each of the test compounds was dissolved in a basic medium (pH 7.5) consisting of 35.8 g of disodium phosphate, 6.0 ml of 10% hydrochloric acid and 2.8 g of pancreatin and 1000 ml of water, and the degree of hydrolysis of each test compound was determined as in the case of the acidic medium.

[4] = Conversion to ampicillin in 40% mouse blood (incubation and bioautography); format: in vitro ADME
Protocol: The resulting ampicillin ester hydrochloride was incubated at 37° C. for 10 minutes in 40% mouse blood, and then bioautographed.
The resulting ampicillin (5-phenyl-2-oxo-1,3-dioxolen-4-yl)methyl ester hydrochloride was incubated at 37° C. for […] in 40% mouse blood, and then bioautographed.
The product was incubated and bioautographed in the same way as in Referential Example 1.

Compound: Cc1oc(=O)oc1COC(=O)[C@@H]1N2C(=O)[C@@H](NC(=O)[C@H](N)c3ccccc3)[C@H]2SC1(C)C [A, Ampicillin (5-methyl-2-oxo-1,3-dioxolen-4-yl) methyl ester hydrochloride]
- Absorption, conversion to ampicillin and blood level (in words) ([1]; compared with C and B): easily absorbed and converted back to the original ampicillin in vivo, and shows a high blood level over a longer period of time than ampicillin (C) and the known ampicillin ester (B)
- metabolised at 1 h ([2]; acidic medium with pepsin): 7%
- metabolised at 4 h ([2]; acidic medium with pepsin): 20%
- Stability in the acidic medium (in words) [2]: much more stable than the known control compound (B)
- metabolised at 1 h ([3]; basic medium with pancreatin): 80%
- Stability in the basic medium (in words) [3]: much more stable than the known control compound (B)
- Conversion to ampicillin in mouse blood ([4]; 40% mouse blood, 37° C., 10 minutes): completely changed to ampicillin

- metabolised at 20 h ([2]; acidic medium with pepsin): 100%
- metabolised at 20 min ([3]; basic medium with pancreatin): 90%
- metabolised at 1 h ([3]; basic medium with pancreatin): 100%
Compound: CC1(C)S[C@@H]2[C@H](NC(=O)[C@H](N)c3ccccc3)C(=O)N2[C@H]1C(=O)OC1OC(=O)c2ccccc21 (stereo partly drawn) [B, Ampicillin phthalidyl ester hydrochloride]

Compound: CC1(C)S[C@@H]2[C@H](NC(=O)[C@H](N)c3ccccc3)C(=O)N2[C@H]1C(=O)O [C, Ampicillin trihydrate]
- Ratio of the concentration of ampicillin in the serum ([1]; 15 min): 1.0
- Ratio of the concentration of ampicillin in the serum ([1]; 30 min): 1.0
- Ratio of the concentration of ampicillin in the serum ([1]; 60 min): 1.0
- Ratio of the concentration of ampicillin in the serum ([1]; 90 min): 1.0
- Ratio of the concentration of ampicillin in the serum ([1]; 120 min): 1.0
- Ratio of the concentration of ampicillin in the serum ([1]; 180 min): 1.0

- Conversion to ampicillin in mouse blood [4]: changed completely to ampicillin
Compound: CC1(C)S[C@@H]2[C@H](NC(=O)[C@H](N)c3ccccc3)C(=O)N2[C@H]1C(=O)OC1CCCc2oc(=O)oc21 (stereo partly drawn) [Referential Example 1, ampicillin (2,3-carbonyldioxy-2-cyclohexenyl) ester hydrochloride]

- Conversion to ampicillin in mouse blood [4]: completely changed to ampicillin
Compound: CC1(C)S[C@@H]2[C@H](NC(=O)[C@H](N)c3ccccc3)C(=O)N2[C@H]1C(=O)OCc1oc(=O)oc1-c1ccccc1 [Referential Example 2, ampicillin (5-phenyl-2-oxo-1,3-dioxolen-4-yl)methyl ester hydrochloride]
